Data taken from patent US20190225670A1, “COMPOUNDS AND METHODS FOR ACTIVATING TIE2 SIGNALING” (ASCLEPIX THERAPEUTICS, LLC, priority 2016, published 2019).

Experiments:
[1] = test system: VEGFR2, c-Met, IGF1R, and PDGFRβ; conditions: Lee et al., Sci Rep. 2014; cited from earlier work
integrin α5β1 = integrin α5β1 (Homo sapiens, UniProt P05556+P08648); conditions: Lee et al., Sci Rep. 2014; cited from earlier work
phospho-Tie2 (Y992) = test: Immunofluorescence of phospho-Tie2 in MEC monolayers; type: cell-based, human; conditions: 200 ng/ml Ang2 15 min and AXT107
Experimental: As such, subsequent experiments evaluate the effects of AXT107 at cell-cell junctions in MEC monolayers using immunofluorescence microscopy rather than at the EC-ECM interface.
(§1) Glass-bottomed, 96-well plates with half well size were coated with 10 μg/ml FN1 for two hours at 37° C. The FN1 solution was then removed by aspiration and the plate seeded with 4×10^3 MECs in EGM-2MV media. After twenty-four hours, the cells were washed once with dPBS containing Ca^2+ and Mg^2+ to remove dead cells and the cells were allowed to grow for an additional twenty-four hours. For three-hour duration treatments (i.e., VE-cadherin), cells were washed twice with dPBS containing Ca^2+ and Mg^2+ and serum starved in EBM-2 for ninety minutes. The media was then removed and the cells were treated for three hours with 100 μl of EBM-2 media containing 200 ng/ml Ang2 or PBS and varying concentrations of AXT107 or DMSO. For fifteen minute-treated samples (i.e., phospho-Tie2), the cells were serum starved in EBM-2 media for 165 minutes, incubated for ninety minutes with varying concentrations of AXT107 or DMSO in EBM-2, and finally stimulated for fifteen minutes with 200 ng/ml Ang2 or PBS supplemented with peptide to retain the same concentrations. These times were chosen so that both treatment procedures would be completed at the same time. […]

F-actin = F-actin immunofluorescence in MEC monolayers; type: cell-based, human; conditions: 200 ng/ml Ang2, increasing concentrations of AXT107
Experimental: The jaggedness of these junctions is related to the structure of actin within the cell.
as §1, with “time. The cells were then washed twice with cold dPBS containing Ca^2+ and Mg^2+ and fixed in 10% neutral buffered formalin for fifteen minutes.” for “time.”

Erk1/2 = test: Western blot of phospho-Erk1/2 in MEC lysates treated with Ang2 and AXT107; type: cell-based, human; conditions: AXT107 and Ang2, all tested conditions
Experimental: (§2) For Ang1/2 signaling investigations, cell culture dishes (10 cm diameter) were coated with 5 μg/ml fibronectin (FN1; Sigma-Aldrich, St. Louis, Mo.) for two hours at 37° C. The FN1 solution was then removed by aspiration and 5×10^6 microvascular endothelial cells (MECs; Lonza, Walkersville, Md.) were plated in EGM-2MV media (Lonza) and cultured for forty-eight hours at 37° C. The cells were then serum starved for sixteen hours in serum-free EGM-2 base media (Lonza). AXT107 (0-100 μM, as indicated) was subsequently added to each culture and incubated for seventy-five minutes at 37° C. The cultures were then treated with 1 mM sodium vanadate (New England Biolabs, Ipswich, Mass.) for fifteen minutes to enhance the phospho-Tie2 signal followed by stimulation with 200 ng/ml angiopoietin (R&D Systems, Minneapolis, Minn.) for an additional fifteen minutes. […] Specific proteins were identified by Western blot, using the following primary antibodies: Cell Signaling—phospho-Tie2 (Y992) (Cat#: 4221), Tie2 (Cat#: 7403), phospho-Stat3 (Y705) (Cat#: 4113), Stat3 (Cat#: 4904), phospho-Akt (S473) (Cat#: 4058), Akt (Cat#: 9272), phospho-p44/42 MAPK (T202/Y204) (Cat#: 4370), p44/42 MAPK (Cat#: 4695); BD Transduction Laboratories—β1 integrin (Cat#: 610467); Millipore—α5 integrin (Cat#: AB1928) and detected with HRP-conjugated goat anti-rabbit and sheep anti-mouse secondary antibodies (GE healthcare).

STAT3 = test: Western blot of phospho-STAT3 (Y705) in MEC lysates treated with Ang2 and AXT107; type: cell-based, human
Experimental: A confluent monolayer of human microvascular endothelial cells (HMEC) was serum starved with EBM-2 overnight. After a 90 min treatment with AXT107 at concentrations of 0, 10, 32, and 100 μM, the cells were treated for 15 min with 1 mM sodium orthovanadate. Next the cells were treated with Angiopoietin-2 (Ang-2) at 200 ng/mL for 15 min. Following cell lysis, the lysates were immunoblotted for pTie2 (Y992), pSTAT3 (Y705), and pAkt (S473).
as §2, with “C.” for “C. The cells were then serum starved for sixteen hours in serum-free EGM-2 base media (Lonza). AXT107 (0-100 μM, as indicated) was subsequently added to each culture and incubated for seventy-five minutes at 37° C. The cultures were then treated with 1 mM sodium vanadate (New England Biolabs, Ipswich, Mass.) for fifteen minutes to enhance the phospho-Tie2 signal followed by stimulation with 200 ng/ml angiopoietin (R&D Systems, Minneapolis, Minn.) for an additional fifteen minutes.”

[2] = Self-assembly of peptide in media; type: physicochemical; conditions: cell culture media

Sequence of integrin α5β1 (P08648 42-1049): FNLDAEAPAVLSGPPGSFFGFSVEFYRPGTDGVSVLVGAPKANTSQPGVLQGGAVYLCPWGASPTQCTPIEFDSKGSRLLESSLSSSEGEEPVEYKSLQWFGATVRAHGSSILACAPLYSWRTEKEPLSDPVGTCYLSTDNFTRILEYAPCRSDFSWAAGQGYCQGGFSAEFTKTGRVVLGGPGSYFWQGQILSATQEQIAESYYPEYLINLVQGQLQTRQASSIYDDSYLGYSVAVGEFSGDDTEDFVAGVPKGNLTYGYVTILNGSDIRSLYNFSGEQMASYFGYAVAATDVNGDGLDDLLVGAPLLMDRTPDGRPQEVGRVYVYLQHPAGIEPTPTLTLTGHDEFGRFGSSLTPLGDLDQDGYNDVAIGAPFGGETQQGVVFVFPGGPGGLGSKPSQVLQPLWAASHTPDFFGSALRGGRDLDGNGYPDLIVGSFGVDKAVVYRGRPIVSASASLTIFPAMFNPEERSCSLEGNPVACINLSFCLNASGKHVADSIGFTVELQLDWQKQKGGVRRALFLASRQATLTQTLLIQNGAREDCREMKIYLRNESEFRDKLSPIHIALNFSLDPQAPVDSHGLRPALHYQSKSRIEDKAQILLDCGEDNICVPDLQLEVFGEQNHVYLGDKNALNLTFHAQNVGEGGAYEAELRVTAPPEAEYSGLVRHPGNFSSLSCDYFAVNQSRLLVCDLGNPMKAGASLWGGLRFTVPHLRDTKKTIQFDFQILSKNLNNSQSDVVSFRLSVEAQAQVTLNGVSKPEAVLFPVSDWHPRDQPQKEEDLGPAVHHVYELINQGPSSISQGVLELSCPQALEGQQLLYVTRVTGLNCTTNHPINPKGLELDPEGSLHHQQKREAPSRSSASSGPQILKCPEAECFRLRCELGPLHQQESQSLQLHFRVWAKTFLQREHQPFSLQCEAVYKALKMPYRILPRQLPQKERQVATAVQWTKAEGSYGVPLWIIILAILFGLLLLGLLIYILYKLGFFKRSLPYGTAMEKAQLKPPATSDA
Sequence of integrin α5β1 (P05556 21-798): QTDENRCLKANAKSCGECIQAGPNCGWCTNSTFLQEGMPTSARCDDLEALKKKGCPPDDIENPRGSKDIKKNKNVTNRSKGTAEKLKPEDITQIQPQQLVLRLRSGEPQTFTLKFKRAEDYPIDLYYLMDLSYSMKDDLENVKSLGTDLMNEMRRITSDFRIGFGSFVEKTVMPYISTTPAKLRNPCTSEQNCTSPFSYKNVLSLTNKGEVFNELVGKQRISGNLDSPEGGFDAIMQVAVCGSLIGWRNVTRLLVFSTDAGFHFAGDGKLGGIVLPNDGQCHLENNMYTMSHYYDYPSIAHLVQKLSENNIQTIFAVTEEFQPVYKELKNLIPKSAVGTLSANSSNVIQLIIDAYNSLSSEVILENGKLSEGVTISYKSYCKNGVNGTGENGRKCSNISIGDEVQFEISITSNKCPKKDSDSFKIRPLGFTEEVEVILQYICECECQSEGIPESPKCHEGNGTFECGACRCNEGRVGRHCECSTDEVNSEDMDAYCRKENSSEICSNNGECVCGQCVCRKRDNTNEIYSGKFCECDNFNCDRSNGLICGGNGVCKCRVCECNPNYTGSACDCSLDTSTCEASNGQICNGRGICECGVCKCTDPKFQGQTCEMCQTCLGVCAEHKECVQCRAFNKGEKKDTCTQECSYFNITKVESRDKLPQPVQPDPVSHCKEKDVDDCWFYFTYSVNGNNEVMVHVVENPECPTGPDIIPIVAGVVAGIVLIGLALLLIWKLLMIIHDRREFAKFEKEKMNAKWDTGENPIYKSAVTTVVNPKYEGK

Q: With LRRFSTAPFAFIDINDVINF [AXT107] as the sequence, how does the “receptor phosphorylation and downstream signals of RTKs” value [1] read?
A: significantly decreases

Q: What about the “binding to integrin α5β1” value (integrin α5β1) of the same sequence?
A: binds tightly

Q: And the “phospho-Tie2 fluorescence intensity and distribution” value (phospho-Tie2 (Y992))?
A: increased overall fluorescence intensity and redistributed phospho-Tie2 along cell-cell junctions and into large clusters

Q: What about the actin fiber arrangement (F-actin) of the same sequence?
A: became more cortical

Q: What about the Erk1/2 phosphorylation (Erk1/2) of the same sequence?
A: remained constant

Q: What about the STAT3 phosphorylation (STAT3) of the same sequence?
A: increased phosphorylation

Q: What about the “self-assembly when added to media” value [2] of the same sequence?
A: self-assemble into peptide complexes
